Measured values: PMC12000094, “Development of a highly sensitive luciferase assay for intracellular evaluation of coronavirus Mpro activity” (Frontiers in Microbiology, 2025)
Like-named read-outs stand apart in the source and are kept apart here. Square brackets hold non-standard residues; d marks the D form. Peptide text beside a SMILES is read from it. Nle = CCCC[C@H](N)C(=O)O

How the values were obtained:
HCoV-229E [1] = experiment: microbe, parasite or virus in culture; assay type: cell-based, HCoV-229E (Huh-7 cells); conditions: for IC50: read-out: IC50 (inhibition of luciferase expression, HCoV-229E infection); for antiviral potency against HCoV 229E in words: ICMP assay, Huh-7 cells
HCoV-229E [2] = experiment: RT-qPCR of viral RNA and Mpro gene in HCoV-229E-infected, drug-treated Huh-7 cells; assay type: cell-based, HCoV-229E (Huh-7 cells); conditions: infected Huh-7 cells, 48 h post-infection
229E coronavirus = system: 229E coronavirus; parameters: method as in Boras et al., 2021; conditions: cell-based assay; ref Boras et al., 2021; read-out: IC50 (anti-229E coronavirus activity, previous study); cited from earlier work
[3] = Human coronavirus 229E, Huh-7, 48 h

Structure (SMILES) | IC50 (HCoV-229E [1]; [3]) | antiviral potency against HCoV 229E in words (HCoV-229E [1]) | IC50 (HCoV-229E [1]) | other results
CC(C)(C)NC(=O)N[C@H](C(=O)N1C[C@H]2[C@@H]([C@H]1C(=O)NC(CC1CCC1)C(=O)C(N)=O)C2(C)C)C(C)(C)C (stereo partly drawn) [Boceprevir] | > 50000 nM | very weak inhibitory potency | – | –
CC(C)(C)c1ccc(N(C(=O)c2cnc[nH]2)[C@@H](C(=O)NC2CCCCC2)c2cccnc2)cc1 [X77] | – | – | 457 nM | –
CCCC[C@@H](C=O)NC(=O)[C@H](CC(C)C)NC(=O)[C@H](CC(C)C)NC(C)=O [MG-101] (Ac-Leu-Leu-[Nle]-aldehyde) | – | moderate cellular inhibition | 2800 nM | –
CC(C)C[C@H](NC(=O)OCc1ccccc1)C(=O)N[C@@H](C[C@@H]1CCNC1=O)C(O)S(=O)(=O)[O-].[Na+] (stereo partly drawn) [GC376] | – | effectively suppresses the replication | – | –
COc1cccc2[nH]c(C(=O)N[C@@H](CC(C)C)C(=O)N[C@@H](C[C@@H]3CCNC3=O)C(=O)COP(=O)(O)O)cc12 [Lufotrelvir] | 65 nM | – | – | intracellular 229E Mpro expression (RT-qPCR, normalized to GAPDH) versus drug concentration (HCoV-229E [2]; increasing drug concentration): decreased significantly; HCoV 229E viral RNA levels (RT-qPCR, normalized to GAPDH) versus drug concentration (HCoV-229E [2]; increasing drug concentrations): negative correlation; IC50 (229E coronavirus): 58 nM
CC(C)C[C@H](NC(=O)OCc1ccccc1)C(=O)N[C@@H](CC1CCNC1=O)C(O)S(=O)(=O)O (stereo partly drawn) [GC376] | – | – | 345 nM | –
O=c1cc(-c2ccc(O)c(O)c2)oc2cc(O[C@@H]3O[C@H](CO)[C@@H](O)[C@H](O)[C@H]3O)cc(O)c12 [Cynaroside, luteolin 7-O-β-D-glucoside] | – | moderate inhibitory effects | 21600 nM | antiviral potency against HCoV 229E in words (HCoV-229E [1]; listed as cynaroside): moderate antiviral activity
CC(C)(C)[C@H](NC(=O)C(F)(F)F)C(=O)N1C[C@H]2[C@@H]([C@H]1C(=O)N[C@H](C#N)C[C@@H]1CCNC1=O)C2(C)C [Nirmatrelvir] | 233 nM | – | – | –
